Assay results: patent US20230148144A1, “Cell” (AUTOLUS LIMITED, priority 2020, published 2023)

System: CAR-T cells
Test: Effect of Tacrolimus on proliferation of CAR-expressing cells in co-culture
Format: cell-based
Details: 20 ng/ml Tacrolimus
Description: Cells were co-cultures for 96 hours at a 1:4 E:T ratio in the presence or absence of 20 ng/ml of Tacrolimus. Transduced effector cells were identified based on their expression of RQR8 and their proliferation analysed using cell-trace violet (CTV) dilution. […] In a similar study, cells transduced to express either TRBC2 CAR alone or TRBC2 CAR in combination with a calcineurin mutant (CnB30) were co-cultured for 4 days with TRBC2+ positive targets in the presence or absence of 20 ng/ml of Tacrolimus. […] This was true for cells expressing TRBC2 CAR alone or co-expressing TRBC2 CAR in combination with the calcineurin mutant.

## C=CC[C@@H]1/C=C(\C)C[C@H](C)C[C@H](OC)[C@H]2O[C@@](O)(C(=O)C(=O)N3CCCC[C@H]3C(=O)O[C@H](/C(C)=C/[C@@H]3CC[C@@H](O)[C@H](OC)C3)[C@H](C)[C@@H](O)CC1=O)[C@H](C)C[C@@H]2OC [Tacrolimus]
4 days co-culture with TRBC2+ targets, FIG. 22
  proliferation of cells expressing TRBC2 CAR alone: inhibits proliferation
96 h co-culture, FIG. 16B vs FIG. 17B
  proliferation of CAR-T cells: inhibited
